This assay has as its target T1, F508del (Homo sapiens, UniProt P13569, DEL508-508).
T1 construct: expressed in transfected cells
The experiment in a line: Protocol 2: FRET membrane potential optical assay (VIPR), identification of correction compounds. Type of assay: cell-based. A digest of the protocol:
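NIH3T3 mouse fibroblasts stably expressing F508del were treated with test compound for 16 hrs at 37° C. in serum-free medium; 27° C. incubation served as positive control. F508del was activated with 10 μM forskolin plus 20 μM genistein in Cl^−-free medium, and Cl^− efflux-driven depolarization was read by DiSBAC2(3)/CC2-DMPE FRET.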

Setting [1] is: Table 3, compounds of Table 1 as modulators of CFTR activity, protocol not stated.
Where [2] appears, read: F508del CFTR modulator activity, compounds of Table 1, read-out: EC30.

The values below come from patent US10758534B2 (Vertex Pharmaceuticals Incorporated, priority 2014, dated 2020).

Read-outs that look alike come from different tables or passages of the source.

T1 sequence (P13569 with tags, fused parts or gaps DEL508-508): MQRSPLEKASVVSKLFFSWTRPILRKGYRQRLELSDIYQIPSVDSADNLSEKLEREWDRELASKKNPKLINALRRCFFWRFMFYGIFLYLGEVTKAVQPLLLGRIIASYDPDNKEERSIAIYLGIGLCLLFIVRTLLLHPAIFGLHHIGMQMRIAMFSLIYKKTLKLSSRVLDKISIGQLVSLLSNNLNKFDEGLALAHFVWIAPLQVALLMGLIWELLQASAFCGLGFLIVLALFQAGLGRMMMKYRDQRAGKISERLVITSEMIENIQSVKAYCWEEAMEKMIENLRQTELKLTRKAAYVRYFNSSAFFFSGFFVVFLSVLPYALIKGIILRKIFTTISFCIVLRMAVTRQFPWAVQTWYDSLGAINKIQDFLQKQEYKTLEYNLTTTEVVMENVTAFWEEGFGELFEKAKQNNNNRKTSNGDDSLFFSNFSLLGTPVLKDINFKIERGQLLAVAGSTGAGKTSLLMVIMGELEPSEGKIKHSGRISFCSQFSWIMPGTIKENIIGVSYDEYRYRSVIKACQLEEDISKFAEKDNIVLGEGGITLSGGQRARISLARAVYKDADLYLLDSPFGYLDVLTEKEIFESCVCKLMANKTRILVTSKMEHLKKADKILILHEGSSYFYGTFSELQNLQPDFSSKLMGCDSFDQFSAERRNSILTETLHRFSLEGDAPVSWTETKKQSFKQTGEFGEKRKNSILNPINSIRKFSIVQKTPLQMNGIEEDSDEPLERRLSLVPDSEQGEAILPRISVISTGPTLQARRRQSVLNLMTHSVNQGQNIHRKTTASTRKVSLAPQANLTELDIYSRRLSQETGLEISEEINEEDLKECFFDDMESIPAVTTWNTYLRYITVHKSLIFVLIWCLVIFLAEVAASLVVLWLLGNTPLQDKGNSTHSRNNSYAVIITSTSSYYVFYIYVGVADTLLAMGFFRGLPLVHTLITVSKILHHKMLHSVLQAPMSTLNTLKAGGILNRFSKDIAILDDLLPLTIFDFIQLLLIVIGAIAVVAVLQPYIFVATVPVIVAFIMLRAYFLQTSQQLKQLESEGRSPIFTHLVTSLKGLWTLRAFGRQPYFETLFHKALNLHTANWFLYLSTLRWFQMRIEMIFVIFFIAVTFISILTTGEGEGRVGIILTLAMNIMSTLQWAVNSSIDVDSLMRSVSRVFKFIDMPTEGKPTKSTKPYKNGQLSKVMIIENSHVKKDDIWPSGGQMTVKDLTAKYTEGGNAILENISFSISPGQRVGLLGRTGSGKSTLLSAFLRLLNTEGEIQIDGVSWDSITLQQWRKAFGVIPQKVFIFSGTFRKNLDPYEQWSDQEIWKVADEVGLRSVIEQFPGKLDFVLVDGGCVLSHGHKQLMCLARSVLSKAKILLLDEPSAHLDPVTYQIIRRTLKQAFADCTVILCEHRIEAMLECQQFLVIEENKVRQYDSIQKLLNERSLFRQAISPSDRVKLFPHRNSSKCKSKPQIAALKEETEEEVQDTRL

Turning to `CC(C)COc1cc(F)cc(-c2ccc(C(=O)NS(=O)(=O)c3cccc(N)n3)c(N3CC(C)CC3C)n2)c1` (stereo not drawn) [Compound 587, N-[(6-amino-2-pyridyl)sulfonyl]-2-(2,4-dimethylpyrrolidin-1-yl)-6-(3-fluoro-5-isobutoxy-phenyl)pyridine-3-carboxamide], the EC30 result under setting [1] was “+++ (“+++” means <3 uM)”.
Take `CC(C)(C)c1ccc(C(=O)NS(=O)(=O)c2cccc(N)n2)c(C2=CCCCC2)n1` [Compound 478, N-[(6-amino-2-pyridyl)sulfonyl]-6-tert-butyl-2-(cyclohexen-1-yl)pyridine-3-carboxamide]: the EC30 entry under setting [1] was “++ (“++” means between 3 uM and 10 uM)”.
On to `CC1CN(c2ncccc2C(=O)NS(=O)(=O)c2cccc(NCc3cccs3)n2)C(C)(C)C1` (stereo not drawn) [Compound 2004, N—[[6-(2-thienylmethylamino)-2-pyridyl]sulfonyl]-2-(2,2,4-trimethylpyrrolidin-1-yl)pyridine-3-carboxamide], for which the 30% effect concentration (EC30) under setting [2] was less than 3 µM.
Same read-out and setting: with `CCOc1cc(F)cc(-c2ccc(C(=O)NS(=O)(=O)c3cccnc3N)c(N3C[C@@H](C)CC3(C)C)n2)c1` [Compound 2018, N-[(2-amino-3-pyridyl)sulfonyl]-6-(3-ethoxy-5-fluoro-phenyl)-2-[(4S)-2,2,4-trimethylpyrrolidin-1-yl]pyridine-3-carboxamide] the figure was less than 3 µM.
For the molecule `COc1cccc(S(=O)(=O)NC(=O)C2c3ccccc3CN2Cc2c(C)cc(C)cc2C)c1` (stereo not drawn) [Compound 16, N-(3-methoxyphenyl)sulfonyl-2-[(2,4,6-trimethylphenyl)methyl]isoindoline-1-carboxamide], under setting [1], the EC30 result is recorded as “+++ (“+++” means <3 uM)”.
For the molecule `COc1cc(F)cc(-c2ccc(C(=O)NS(=O)(=O)c3ccc[nH]c3=O)c(N3C[C@@H](C)CC3(C)C)n2)c1` [Compound 2527, 6-(3-fluoro-5-methoxy-phenyl)-N-[(2-oxo-1H-pyridin-3-yl)sulfonyl]-2-[(4S)-2,2,4-trimethylpyrrolidin-1-yl]pyridine-3-carboxamide], the EC30 under setting [2] was less than 3 µM.
Take `C[C@@H]1CN(c2nc(-c3ccccc3C#N)ccc2C(=O)NS(=O)(=O)c2cccnc2N)C(C)(C)C1` [Compound 2437, N-[(2-amino-3-pyridyl)sulfonyl]-6-(2-cyanophenyl)-2-[(4S)-2,2,4-trimethylpyrrolidin-1-yl]pyridine-3-carboxamide]: under setting [2], the EC30 is less than 3 µM.
As to `COC[C@@H]1CCCN1c1nc(-c2cc(F)cc(OCC(C)C)c2)ccc1C(=O)NS(=O)(=O)c1cccc(N)n1` [Compound 719, N-[(6-amino-2-pyridyl)sulfonyl]-6-(3-fluoro-5-isobutoxy-phenyl)-2-[(2S)-2-(methoxymethyl)pyrrolidin-1-yl]pyridine-3-carboxamide], the EC30 result under setting [1] was “+++ (“+++” means <3 uM)”.
On to `CC1CCN(c2nc(-c3ccc(OC(C)C)nc3)ccc2C(=O)NS(=O)(=O)c2cccc(N)n2)CC1` [Compound 736, N-[(6-amino-2-pyridyl)sulfonyl]-6-(6-isopropoxy-3-pyridyl)-2-(4-methyl-1-piperidyl)pyridine-3-carboxamide], for which the EC30 entry under setting [1] is listed as “+++ (“+++” means <3 uM)”.
Same read-out and setting: then `COc1ccccc1S(=O)(=O)NC(=O)c1ccc(C(C)(C)C)nc1Oc1c(C)cc(C)cc1C` [Compound 115, 6-tert-butyl-N-(2-methoxyphenyl)sulfonyl-2-(2,4,6-trimethylphenoxy)pyridine-3-carboxamide], with “+++ (“+++” means <3 uM)”; and `CC(C)COc1cc(F)cc(-c2ccc(C(=O)NS(=O)(=O)c3cccc(N)n3)c(N3CCC[C@@H]3C)n2)c1` [Compound 421, N-[(6-amino-2-pyridyl)sulfonyl]-6-(3-fluoro-5-isobutoxy-phenyl)-2-[(2S)-2-methylpyrrolidin-1-yl]pyridine-3-carboxamide], with “+++ (“+++” means <3 uM)”.
As for `Cc1ccc(F)cc1-c1ccc(C(=O)NS(=O)(=O)c2ccc[nH]c2=O)c(N2C[C@@H](C)CC2(C)C)n1` [Compound 2067, 6-(5-fluoro-2-methyl-phenyl)-N-[(2-oxo-1H-pyridin-3-yl)sulfonyl]-2-[(4S)-2,2,4-trimethylpyrrolidin-1-yl]pyridine-3-carboxamide], under setting [2], the EC30 is less than 3 µM.
On to `Cc1cc(C)c(CN2Cc3c(-c4ccccc4)cccc3C2C(=O)NS(=O)(=O)c2ccc[nH]c2=O)c(C)c1` (stereo not drawn) [Compound 508, N-[(2-oxo-1H-pyridin-3-yl)sulfonyl]-4-phenyl-2-[(2,4,6-trimethylphenyl)methyl]isoindoline-1-carboxamide], for which the EC30 entry under setting [1] was “++ (“++” means between 3 uM and 10 uM)”.
As to `CC(CO)COc1ccn(-c2ccc(C(=O)NS(=O)(=O)c3cccnc3N)c(N3C[C@@H](C)CC3(C)C)n2)n1` (stereo partly drawn) [Compound 2192, N-[(2-amino-3-pyridyl)sulfonyl]-6-[3-(3-hydroxy-2-methyl-propoxy)pyrazol-1-yl]-2-[(4S)-2,2,4-trimethylpyrrolidin-1-yl]pyridine-3-carboxamide], the EC30 under setting [2] is less than 3 µM.
As to `CC(C)c1ccc(-c2ccc(C(=O)NS(=O)(=O)c3cccc(N)n3)c(N3C[C@@H](C)CC3(C)C)n2)cc1` [Compound 630, N-[(6-amino-2-pyridyl)sulfonyl]-6-(4-isopropylphenyl)-2-[(4S)-2,2,4-trimethylpyrrolidin-1-yl]pyridine-3-carboxamide], under setting [1], the EC30 result is “+++ (“+++” means <3 uM)”.
The same measure, in the same setting: then `CC(C)(C)c1cccc(-c2nc(C(C)(C)C)ccc2C(=O)NS(=O)(=O)c2cccc(N)c2)c1` [Compound 229, N-(3-aminophenyl)sulfonyl-6-tert-butyl-2-(3-tert-butylphenyl)pyridine-3-carboxamide], with “+++ (“+++” means <3 uM)”.
Take `CC1CN(c2ncccc2C(=O)NS(=O)(=O)c2cccc(Nc3cccc4ncccc34)n2)C(C)(C)C1` (stereo not drawn) [Compound 2074, N—[[6-(5-quinolylamino)-2-pyridyl]sulfonyl]-2-(2,2,4-trimethylpyrrolidin-1-yl)pyridine-3-carboxamide]: the EC30 under setting [2] fell in the range of 3 to 10 µM.
As to `CC(C)COc1cc(F)cc(-c2ccc(C(=O)NS(=O)(=O)c3cccc(N)n3)c(N3[C@H](C)CC[C@@H]3C)n2)c1` [Compound 171, N-[(6-amino-2-pyridyl)sulfonyl]-2-[(2S,5R)-2,5-dimethylpyrrolidin-1-yl]-6-(3-fluoro-5-isobutoxy-phenyl)pyridine-3-carboxamide], the EC30 entry under setting [1] is given as “+++ (“+++” means <3 uM)”.
As for `CC(C)Oc1ccc(-c2ccc(C(=O)NS(=O)(=O)c3cccc(N)n3)c(N3CCCC3c3ccccc3)n2)cn1` (stereo not drawn) [Compound 509, N-[(6-amino-2-pyridyl)sulfonyl]-6-(6-isopropoxy-3-pyridyl)-2-(2-phenylpyrrolidin-1-yl)pyridine-3-carboxamide], the EC30 entry under setting [1] is listed as “+++ (“+++” means <3 uM)”.
The same measure, in the same setting: then `Cc1cc(C)c(Oc2nc(C3CCC(C)(C)CC3)ccc2C(=O)NS(=O)(=O)c2cccc(N)n2)c(C)c1` [Compound 538, N-[(6-amino-2-pyridyl)sulfonyl]-6-(4,4-dimethylcyclohexyl)-2-(2,4,6-trimethylphenoxy)pyridine-3-carboxamide], with “+++ (“+++” means <3 uM)”; and `C[C@@H](c1ccccc1)n1nc(C(C)(C)C)cc1C(=O)NS(=O)(=O)c1cccc(N)c1` [Compound 138, N-(3-aminophenyl)sulfonyl-5-tert-butyl-2-[(1S)-1-phenylethyl]pyrazole-3-carboxamide], with “++ (“++” means between 3 uM and 10 uM)”.

One may read the EC30 as the concentration at which the effect reaches the 30% level.
